Patent US20240116985A1, “STAPLED PEPTIDES AND METHODS THEREOF” (priority 2020, published 2024)
Read-outs that look alike come from different tables or passages of the source.

Assays:
[1] = CHI Log D procedure; format: physicochemical; details: for CHI Log D: pH 7.4; for chromatographic logD: pH 7.4, CHI Log D
[2] = molecular target: T1, full-length beta-Catenin (Uniprot ID P35222) (Homo sapiens, UniProt P35222); test: Fluorescence polarization IC50 (beta-catenin / 5FAM-TCF4 10-53 competition); format: binding
T1 construct: 10 nM full-length beta-Catenin (Uniprot ID P35222)
T1 sequence (P35222 1-781): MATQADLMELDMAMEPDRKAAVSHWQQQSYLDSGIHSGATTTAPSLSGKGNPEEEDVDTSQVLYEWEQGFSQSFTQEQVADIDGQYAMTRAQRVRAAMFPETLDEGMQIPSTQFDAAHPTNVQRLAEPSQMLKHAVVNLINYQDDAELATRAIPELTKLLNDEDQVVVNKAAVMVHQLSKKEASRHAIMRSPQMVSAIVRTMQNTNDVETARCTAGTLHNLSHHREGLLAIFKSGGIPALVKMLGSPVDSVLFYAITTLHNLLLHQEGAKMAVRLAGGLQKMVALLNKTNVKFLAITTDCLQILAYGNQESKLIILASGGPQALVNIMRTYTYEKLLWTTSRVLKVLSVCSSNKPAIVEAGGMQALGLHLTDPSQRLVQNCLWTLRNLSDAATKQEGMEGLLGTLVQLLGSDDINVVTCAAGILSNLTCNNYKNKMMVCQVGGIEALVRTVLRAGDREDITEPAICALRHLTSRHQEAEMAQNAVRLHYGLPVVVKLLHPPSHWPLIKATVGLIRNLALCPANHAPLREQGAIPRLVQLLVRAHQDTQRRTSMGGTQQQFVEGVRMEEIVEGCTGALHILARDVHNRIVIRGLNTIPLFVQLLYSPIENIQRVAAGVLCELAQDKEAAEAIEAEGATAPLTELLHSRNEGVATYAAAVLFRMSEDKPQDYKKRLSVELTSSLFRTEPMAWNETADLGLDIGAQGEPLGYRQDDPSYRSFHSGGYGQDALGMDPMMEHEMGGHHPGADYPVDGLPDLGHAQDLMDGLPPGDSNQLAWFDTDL

[3] = fluorescence polarization, beta-catenin, read-out: FP EC50
[4] = fluorescence polarization, read-out: beta-Catenin FP IC50
[5] = Table E2-1, read-out: beta-Catenin FP IC50

Row | Structure (SMILES) | CHI Log D [1] | IC50 [2, 3] | IC50 [2, 4] | chromatographic logD [1] | IC50 [2, 5] | IC50 ([2]; read-out: FP EC50) | IC50 ([2]; read-out: beta-Catenin FP IC50)
1 | CC(=O)N1CCC[C@]12CC=CCCCC1(CCCC=CCCCCCC[C@@](C)(C(=O)N[C@@H](Cc3ccccc3)C(=O)N[C@@H](Cc3c[nH]c4ccccc34)C(=O)N[C@@H](CCC(N)=O)C(N)=O)NC(=O)[C@H](C(C)C)NC(=O)[C@H](Cc3ccccc3F)NC(=O)[C@H](C)NC(=O)[C@H](C)NC(=O)[C@H](CC(=O)O)NC(=O)[C@H](CC(=O)O)NC1=O)NC(=O)[C@H](C)NC(=O)[C@H](CC(=O)O)NC2=O (stereo partly drawn) [I-317, Ac-PL3-Asp-Ala-B5-Asp-Asp-Ala-Ala-2FF-Val-S8-Phe-Trp-Gln-NH2] | – | – | – | 2.02 | 5000 nM | – | –
2 | CC[C@H](C)[C@@H]1NC(=O)[C@H](CC(=O)O)NC(=O)[C@]2(CC=CCCCC3(CCCC=CCCCCCC[C@@](C)(C(=O)N[C@@H](Cc4ccccc4)C(=O)N[C@@H](Cc4csc5ccccc45)C(=O)N[C@@H](CCC(N)=O)C(=O)N[C@@H](CCCCNC(=O)CN=[N+]=[N-])C(N)=O)NC(=O)[C@H](CCC(N)=O)NC(=O)[C@H](Cc4ccccc4)NC(=O)[C@H](C)NC(=O)[C@H](C)NC(=O)[C@H](CCC(=O)O)NC(=O)[C@H](CC(=O)O)NC3=O)NC1=O)CCCN2C(C)=O (stereo partly drawn) [I-597, Ac-PL3-Asp-Ile-B5-Asp-Glu-Ala-Ala-Phe-Gln-S8-Phe-BztA-Gln-[AzAc]Lys-NH2] | 2.39 | – | – | – | – | 76 nM | –
3 | CC(=O)N1CCC[C@]12CC=CCCCC1(CCCC=CCOC(=O)N(C)CCC[C@@](C)(C(=O)N[C@@H](Cc3cccc(F)c3)C(=O)N[C@@H](Cc3csc4ccccc34)C(=O)N[C@@H](CCC(N)=O)C(N)=O)NC(=O)[C@H](CCC(N)=O)NC(=O)[C@H](Cc3cccc(C)c3)NC(=O)[C@H](C)NC(=O)[C@H](C)NC(=O)[C@H](CN(CC(=O)O)CC(F)(F)F)NC(=O)[C@H](CC(=O)O)NC1=O)NC(=O)[C@H](C)NC(=O)[C@H](CC(=O)O)NC2=O (stereo partly drawn) [I-405, Ac-PL3-Asp-Ala-B5-Asp-TfeGA-Ala-Ala-3MeF-Gln-SeN-3FF-BztA-Gln-NH2] | – | – | 3820 nM | 1.72 | – | – | –
4 | CC[C@H](C)[C@@H]1NC(=O)[C@H](CC(=O)O)NC(=O)[C@]2(CC=CCCCC3(CCCC=CCCCCCC[C@@](C)(C(=O)N[C@@H](Cc4cccc(F)c4)C(=O)N[C@@H](Cc4csc5ccccc45)C(=O)N[C@@H](CCC(N)=O)C(N)=O)NC(=O)[C@H](CCC(N)=O)NC(=O)[C@H](Cc4cccs4)NC(=O)[C@H](C)NC(=O)[C@H](C)NC(=O)[C@H](CCC(=O)O)NC(=O)[C@H](CC(=O)O)NC3=O)NC1=O)CCCN2C(C)=O (stereo partly drawn) [I-412, Ac-PL3-Asp-Ile-B5-Asp-Glu-Ala-Ala-2Thi-Gln-S8-3FF-BztA-Gln-NH2] | – | – | 92 nM | 2.65 | – | – | –
5 | CC(=O)N1CCC[C@]12CC=CCCCC1(CCCC=CCCCOC(=O)N3CC[C@@](C(=O)N[C@@H](Cc4ccsc4)C(=O)N[C@@H](Cc4csc5ccccc45)C(=O)N[C@@H](CO)C(N)=O)(C3)NC(=O)[C@H](Cc3ccccc3)NC(=O)[C@H](Cc3ccccc3)NC(=O)[C@H](C)NC(=O)[C@H](C)NC(=O)[C@H](CN(CC(=O)O)CC(F)(F)F)NC(=O)[C@H](CC(=O)O)NC1=O)NC(=O)[C@H](CC(C)(C)C)NC(=O)[C@H](CC(=O)O)NC2=O (stereo partly drawn) [I-963, Ac-PL3-Asp-Npg-B5-Asp-TfeGA-Ala-Ala-Phe-Phe-PyrS2-3Thi-BztA-Ser-NH2] | 2.117 | 402 nM | – | – | – | – | 402 nM
6 | CCN(CC(=O)O)C[C@@H]1NC(=O)[C@H](CC(=O)O)NC(=O)C2(CCCC=CCCCOC(=O)N3CC[C@@](C(=O)N[C@@H](Cc4ccsc4)C(=O)N[C@@H](Cc4csc5ccccc45)C(=O)N[C@@H](CCC(N)=O)C(N)=O)(C3)NC(=O)[C@H](Cc3ccccc3)NC(=O)[C@H](Cc3ccccc3)NC(=O)[C@H](C)NC(=O)[C@H](C)NC1=O)CCCC=CC[C@]1(CCCN1C(C)=O)C(=O)N[C@@H](CC(=O)O)C(=O)N[C@@H](CC(C)(C)C)C(=O)N2 (stereo partly drawn) [I-970, Ac-PL3-Asp-Npg-B5-Asp-EtGA-Ala-Ala-Phe-Phe-PyrS2-3Thi-BztA-Gln-NH2] | 1.853 | 1360 nM | – | – | – | – | 1360 nM

Continued, values first:

Row | CHI Log D [1] | IC50 [2, 3] | IC50 [2, 4] | chromatographic logD [1] | IC50 [2, 5] | IC50 ([2]; read-out: FP EC50) | IC50 ([2]; read-out: beta-Catenin FP IC50) | Structure (SMILES)
7 | 2.828 | 2230 nM | 2230 nM | – | – | – | – | CC(=O)N1CCC[C@]12CC=CCCCC1(CCCC=CCCCCCC[C@@](C)(C(=O)N[C@@H](Cc3cccc(F)c3)C(=O)N[C@@H](Cc3csc4ccccc34)C(=O)N[C@@H](CCC(N)=O)C(N)=O)NC(=O)[C@H](C(C)C)NC(=O)[C@H](Cc3ccccc3)NC(=O)[C@H](C)NC(=O)[C@H](C)NC(=O)[C@H](Cc3c[nH]cn3)NC(=O)[C@H](CC(=O)O)NC1=O)NC(=O)[C@H](C)NC(=O)[C@H](CC(=O)O)NC2=O (stereo partly drawn) [I-397, Ac-PL3-Asp-Ala-B5-Asp-His-Ala-Ala-Phe-Val-S8-3FF-BztA-Gln-NH2]
8 | 2.557 | – | 112 nM | – | – | 112 nM | – | CC(=O)N1CCC[C@]12CC=CCCCC1(CCCC=CCCCCCC[C@@](C)(C(=O)N[C@@H](Cc3ccccc3)C(=O)N[C@@H](Cc3csc4ccccc34)C(=O)N[C@H](Cc3c[nH]cn3)C(N)=O)NC(=O)[C@H](CC(N)=O)NC(=O)[C@H](Cc3ccccc3)NC(=O)[C@H](C)NC(=O)[C@H](C)NC(=O)[C@H](CCC(=O)O)NC(=O)[C@H](CC(=O)O)NC1=O)NC(=O)[C@H](CC(C)C)NC(=O)[C@H](CC(=O)O)NC2=O (stereo partly drawn) [I-744, Ac-PL3-Asp-Leu-B5-Asp-Glu-Ala-Ala-Phe-Asn-S8-Phe-BztA-dHis-NH2]
9 | – | – | – | 2.07 | 2270 nM | – | – | CC(=O)N1CCC[C@]12CC=CCCCC1(CCCC=CCCCCCC[C@@](C)(C(=O)N[C@@H](Cc3ccccc3)C(=O)N[C@@H](Cc3ccc4ccccc4n3)C(=O)N[C@@H](CCC(N)=O)C(N)=O)NC(=O)[C@H](C(C)C)NC(=O)[C@H](Cc3ccccc3)NC(=O)[C@H](C)NC(=O)[C@H](C)NC(=O)[C@H](CCC(=O)O)NC(=O)[C@H](CC(=O)O)NC1=O)NC(=O)[C@H](C)NC(=O)[C@H](CC(=O)O)NC2=O (stereo partly drawn) [I-143, Ac-PL3-Asp-Ala-B5-Asp-Glu-Ala-Ala-Phe-Val-S8-Phe-Qui-Gln-NH2]
10 | 2.666 | – | – | – | – | 115 nM | 115 nM | CC(=O)N1CCC[C@]12CC=CCCCC1(CCCC=CCCCCCC[C@@](C)(C(=O)N[C@@H](Cc3ccccc3)C(=O)N[C@@H](Cc3csc4ccccc34)C(=O)N[C@@H](C(N)=O)[C@H](C)O)NC(=O)[C@H](CC(N)=O)NC(=O)[C@H](Cc3ccccc3)NC(=O)[C@H](C)NC(=O)[C@H](C)NC(=O)[C@H](CCC(=O)O)NC(=O)[C@H](CC(=O)O)NC1=O)NC(=O)[C@H](CC(C)C)NC(=O)[C@H](CC(=O)O)NC2=O (stereo partly drawn) [I-754, Ac-PL3-Asp-Leu-B5-Asp-Glu-Ala-Ala-Phe-Asn-S8-Phe-BztA-dThr-NH2]
11 | 2.66 | – | – | – | – | 608 nM | 608 nM | CC(=O)N1CCC[C@]12CC=CCCCC1(CCCC=CCCCCCC[C@@](C)(C(=O)N[C@@H](Cc3ccccc3)C(=O)N[C@@H](Cc3csc4ccccc34)C(=O)N(C)[C@@H](CO)C(N)=O)NC(=O)[C@H](CC(N)=O)NC(=O)[C@H](Cc3ccccc3)NC(=O)[C@H](C)NC(=O)[C@H](C)NC(=O)[C@H](CCC(=O)O)NC(=O)[C@H](CC(=O)O)NC1=O)NC(=O)[C@H](CC(C)C)NC(=O)[C@H](CC(=O)O)NC2=O (stereo partly drawn) [I-760, Ac-PL3-Asp-Leu-B5-Asp-Glu-Ala-Ala-Phe-Asn-S8-Phe-BztA-NMeS-NH2]
